Where “and” joins values, the source holds several entries; their conditions need not be identical. Identical values can stand only once.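 1) Cells in 96-well plates. 2) Compound, 48 h, 5 concentrations. 3) Linear interpolation between surrounding doses. 4) Unreached endpoint = highest concentration. GI50 is the concentration that inhibits growth by half. TGI: concentration producing complete growth inhibition.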 Where a SMILES comes first, the peptide text is derived from it. [ ]: non-standard residue; d: D form. The star is where a group is joined. ξ: configuration not given here. NMeF = CN[CH](Cc1ccccc1)C(=O)O; ξNMe2Val = CC(C)C(C(=O)*)N(C)C; NMeV = CN[CH](C(=O)O)C(C)C; OtBu = CC(C)(C)O*
What was measured:
Assay in all cases: NCI anticancer screen, dose series, 48 h
MOLT-4 leukemia = system: MOLT-4 leukemia
U251 CNS = system: U251 CNS
HOP-92 NSCLC = system: HOP-92 NSCLC
HCT-15 colon = system: HCT-15 colon
SW-620 colon = system: SW-620 colon
OVCAR-4 ovarian = system: OVCAR-4 ovarian
NCI-H522 lung = system: NCI-H522 lung
COLO 205 colon = system: COLO 205 colon
SF-295 CNS = system: SF-295 CNS
RPMI-8226 leukemia = system: RPMI-8226 leukemia

Row | Structure (SMILES) | TGI (MOLT-4 leukemia) | TGI (U251 CNS) | TGI (HOP-92 NSCLC) | TGI (HCT-15 colon) | TGI (SW-620 colon) | TGI (OVCAR-4 ovarian) | TGI (NCI-H522 lung) | TGI (COLO 205 colon) | TGI (SF-295 CNS) | TGI (RPMI-8226 leukemia) | GI50 (U251 CNS) | GI50 (HOP-92 NSCLC) | GI50 (HCT-15 colon) | GI50 (COLO 205 colon)
1 | CCO/C(O)=c1/s/c(=C(\C#N)c2nc3ccccc3[nH]2)n(-c2ccccc2)c1=N | > 100 µM | > 100 µM | > 100 µM | > 100 µM | > 100 µM | > 100 µM | > 100 µM | > 100 µM | > 100 µM | – | – | – | – | –
2 | CC(C)C(C(=O)N(C)C(Cc1ccccc1)C(=O)N(C)C(C(=O)N(C)C(C(=O)N1CCCC1C(=O)OC(C)(C)C)C(C)C)C(C)C)N(C)C (centres undefined) (ξNMe2Val-[NMeF][NMeV][NMeV]P-OtBu; configuration not given here) | 33.7 µM | – | – | > 100 µM | > 100 µM | – | 46.5 µM | > 100 µM | > 100 µM | > 100 µM | – | – | – | –
3 | CC1OC(O[C@@H]2C=C3CC[C@@H]4[C@H](CC[C@]5(C)[C@@H](c6ccc(=O)oc6)CC[C@]45O)[C@@]3(C)CC2)C(O)C(OC2OC(CO)C(O)C(O)C2O)C1O (some centres undefined) | – | 0.0176 µM and 0.0352 µM | – | 0.116 µM and 0.0443 µM | 0.0348 µM and 0.0288 µM | 0.00798 µM | 0.000427 µM | 0.163 µM and 0.029 µM | – | – | 0.000247 µM | 0.000166 µM | 0.000532 µM | 0.000949 µM
4 | Cc1cc(C)c2c(n1)S(=O)(=O)N(CCCN1CCN(c3cccc(Cl)c3)CC1)/C(=C(\O)c1ccc(Br)cc1)C2=O | 60.2 µM | > 100 µM | 59.6 µM | > 100 µM | > 100 µM | 55.8 µM | > 100 µM | 29.8 µM | 86 µM | – | – | – | – | –
5 | COc1ccc(Nc2nc(N)c(C(=O)c3ccc(Cl)cc3)s2)cc1 | – | 4.58 µM | > 93.3 µM | 5.49 µM | > 100 µM | 2.65 µM | < 0.01 µM | 0.117 µM | 15.1 µM | < 0.01 µM | – | – | – | –
6 | CCCCCCCCCCCCOC1C(COCCN2CCCCC2)OC2OC(C)(C)OC21 (centres undefined) | 3.74 µM | 3.48 µM | – | 3.2 µM | 3.23 µM | – | 2.97 µM | 3.03 µM | 3.15 µM | – | – | – | – | –
7 | Cc1ccc(S(=O)(=O)N(CCNC(=O)c2cccc(O)c2O)c2cc3c4c(c2)Oc2cccc5c2C4(C)c2c(cccc2O3)O5)cc1 | > 100 µM | > 100 µM | – | > 100 µM | > 100 µM | > 100 µM | – | – | > 100 µM | > 100 µM | – | – | – | –
8 | C=CCOC(=O)Cn1ccc(=O)[nH]c1=O | > 100 µM | > 100 µM | – | > 100 µM | > 100 µM | – | – | > 100 µM | > 100 µM | > 100 µM | – | – | – | –
9 | COC(=O)c1ccccc1C1CN=NC12Cc1ccc3c(c1C2=O)CCC3 (centres undefined) | > 100 µM | > 100 µM | > 100 µM | > 100 µM | > 100 µM | > 100 µM | 54.7 µM | > 100 µM | > 100 µM | – | – | – | – | –
10 | COc1ccc(C2=Nc3ccccc3N=C(SC)C2)cc1 | > 100 µM | > 100 µM | 61.9 µM | > 100 µM | 41 µM | > 100 µM | 63.2 µM | > 100 µM | > 100 µM | – | – | – | – | –
11 | C=C(C)CCC1C=[N+]([O-])OC(C)(C)C1(C)C (centres undefined) | > 100 µM | > 100 µM | > 100 µM | > 100 µM | > 100 µM | – | > 100 µM | > 100 µM | > 100 µM | > 100 µM | – | – | – | –
12 | CCC(Nc1ncnc2nc[nH]c12)C(=O)O (centres undefined) | – | > 100 µM | > 100 µM | > 100 µM | > 100 µM | > 100 µM | > 100 µM | > 100 µM | > 100 µM | > 100 µM | – | – | – | –
13 | COc1ccc2[nH]c3c(c2c1)CC(=O)N1CCC[C@H](C1)CC31OCCCO1 | – | > 100 µM | > 100 µM | > 100 µM | > 100 µM | > 100 µM | – | > 100 µM | > 100 µM | > 100 µM | – | – | – | –
14 | CC(=O)OCC1OC(N=[N+]=[N-])C(OC(C)=O)C(OC(C)=O)C1OC1OC(COC(C)=O)C(OC(C)=O)C(OC(C)=O)C1OC(C)=O (centres undefined) | > 100 µM | > 100 µM | – | > 100 µM | > 100 µM | > 100 µM | > 100 µM | > 100 µM | > 100 µM | > 100 µM | – | – | – | –
15 | COC(=O)c1c(O)ccc2c1c1c(n2Cc2cccc(C)c2)C(=O)c2ccccc2C1 | 44.5 µM | 66.1 µM | > 75 µM | > 75 µM | > 75 µM | 25.3 µM | – | 22.3 µM | > 75 µM | 31 µM | – | – | – | –
16 | O=c1[nH]c2ccc(CC(=S)N3CCOCC3)cc2o1 | > 100 µM | > 100 µM | – | > 100 µM | > 100 µM | – | – | > 100 µM | > 100 µM | – | – | – | – | –
17 | Cc1[nH]c2nccn2c(=O)c1CCO | > 10 µM | > 10 µM | > 10 µM | > 10 µM | > 10 µM | > 10 µM | – | > 10 µM | > 10 µM | > 10 µM | – | – | – | –
18 | CSc1ccc2c(c1)c(CCN)c(C)n2Cc1ccccc1Cl | – | 3.06 µM | 2.75 µM | 4.45 µM | 3.89 µM | 3.29 µM | 3 µM | 2.99 µM | 3.26 µM | 3.26 µM | – | – | – | –
19 | CN(C)S(=O)(=O)c1nc(Cl)c2[nH]cnc2n1 | > 100 µM | > 100 µM | – | > 100 µM | > 100 µM | > 100 µM | > 100 µM | > 100 µM | > 100 µM | > 100 µM | – | – | – | –
20 | CCOC(=O)c1cc(C)nc2c1c(=O)n(-c1ccccc1)c(=O)n2CCCCN1CCN(c2ncccn2)CC1 | > 100 µM | > 100 µM | > 100 µM | – | > 100 µM | – | > 100 µM | > 100 µM | > 100 µM | > 100 µM | – | – | – | –
21 | O=C1Nc2ccc(Cl)c(I)c2C1=O | 54.6 µM | 31.2 µM | – | 43.7 µM | 36.9 µM | 32 µM | 32 µM | 35.1 µM | 32.3 µM | – | – | – | – | –
22 | CC#COS(=O)(=O)c1ccc(C)cc1 | > 100 µM | > 100 µM | – | > 100 µM | > 100 µM | > 100 µM | > 100 µM | > 100 µM | > 100 µM | 60.2 µM | – | – | – | –
23 | O=S(=O)(/N=C(\NO)Nc1ccc(Cl)cc1)c1cc2ccccc2s1 | 77.8 µM | 29.1 µM | 38.8 µM | 36 µM | 82 µM | 37.9 µM | 27.2 µM | 29.6 µM | 41 µM | – | – | – | – | –

From PubChem BioAssay (NCI)
